≈ marks a conversion by molar mass, not a printed value. A value given as a limit tells only on which side of the number the result lay.

The first experiment deals with S. aureus ATCC 29213. As to the kind of experiment: MIC by broth microdilution (CLSI), quality control strain S. aureus ATCC 29213. Type of experiment: cell-based, Staphylococcus aureus. The settings on record: S. aureus ATCC 29213; multiple values when multiple MIC assays were conducted. The protocol: Minimum inhibitory concentrations were determined using the quality control strain S. aureus ATCC 29213 (Table 1) by the broth microdilution method according to guidelines of the Clinical and Laboratory Standards Institute (CLSI) (Cockerill, F. R.; et al., 2012, Methods for dilution antimicrobial susceptibility tests for bacteria that grow aerobically; approved standard-ninth edition. MA07-A9. Clinical and Laboratory Standard Institute, Wayne, Pa.). […] Published quality control ranges for gepotidacin and ciprofloxacin were used to validate each assay. MICs for selected compounds were also determined using a USA 300 strain of MRSA (Hidron, et al., Lancet Infect. Dis. 2009, 9:384-392). Vancomycin was used as an additional control.
In general terms: In broth dilution the organism is exposed to a series of concentrations in liquid medium.
In the case of `COc1ccc2nccc(CC[C@H]3OC[C@H](NC(=O)c4ccccc4)CO3)c2c1` [AB-0075, N-(2-(2-(6-methoxyquinolin-4-yl)ethyl)-trans-1,3-dioxan-5-yl)benzamide], the “MIC 29213” value stood at 32 µg/mL (≈ 81.5 µM).

Staying with this experiment, now noted: Staphylococcus aureus, ATCC29213, S. aureus ATCC 29213; multiple values when multiple MIC assays were conducted.
`COc1ccc2nccc(CC[C@H]3OC[C@H](NCc4ccccc4C)CO3)c2c1` [AB-0032, 2-(2-(6-methoxyquinolin-4-yl)ethyl)-N-(2-methylbenzyl)-trans-1,3-dioxan-5-amine]: the MIC (as a rule, the lowest concentration found to suppress growth) was greater than 64 µg/mL.
Molecule `COc1ccc2nccc(CC[C@H]3OC[C@H](NCc4cccc(C#N)c4)CO3)c2c1` [AB-0026, 3-(((2-(2-(6-methoxyquinolin-4-yl)ethyl)-trans-1,3-dioxan-5-yl)amino)methyl)benzonitrile] had a minimum inhibitory concentration (MIC) of 64 µg/mL (≈ 159 µM).
`COc1ccc2ncc(=O)n(CC[C@H]3OC[C@H](NCc4cc5c(cn4)OCCO5)CO3)c2c1` [AB-0003, 1-(2-(5-(((2,3-dihydro-[1,4]dioxino[2,3-c]pyridin-7-yl)methyl)amino)-1,3-trans-dioxan-2-yl)ethyl)-7-methoxyquinoxalin-2(1H)-one] came in with a minimum inhibitory concentration (MIC) of 8 µg/mL (≈ 17.6 µM).
Molecule `COc1ccc2nccc(CC[C@H]3OC[C@H](NCc4ccc(OC)nc4)CO3)c2c1` [AB-0056, N-((6-methoxypyridin-3-yl)methyl)-2-(2-(6-methoxyquinolin-4-yl)ethyl)-trans-1,3-dioxan-5-amine] returned an MIC of 32 µg/mL (≈ 78.1 µM).
On to `COc1ccc2nccc(CC[C@H]3OC[C@H](NCc4cccc(F)c4F)CO3)c2c1` [AB-0028, N-(2,3-difluorobenzyl)-2-(2-(6-methoxyquinolin-4-yl)ethyl)-trans-1,3-dioxan-5-amine], for which the MIC is 64 µg/mL (≈ 154 µM).
Still for that read-out and setting: the figure for `COc1ccc2nccc(CC[C@H]3OC[C@H](NCc4c(F)cccc4F)CO3)c2c1` [AB-0025, N-(2,6-difluorobenzyl)-2-(2-(6-methoxyquinolin-4-yl)ethyl)-trans-1,3-dioxan-5-amine] is greater than 64 µg/mL.
As for `COc1ccc2ncc(=O)n(CC(O)[C@H]3OC[C@H](NCc4ccc5c(n4)NC(=O)CO5)CO3)c2c1` (relative stereo) [AB-0078, 6-(((2-(1-hydroxy-2-(7-methoxy-2-oxoquinoxalin-1(2H)-yl)ethyl)-trans-1,3-dioxan-5-yl)amino)methyl)-2H-pyrido[3,2-b][1,4]oxazin-3(4H)-one], the MIC turned out to be 4 µg/mL (≈ 8.27 µM).
In the case of `COc1ccc2nccc(CC[C@H]3OC[C@H](NCc4cc(F)ccc4F)CO3)c2c1` [AB-0022, N-(2,5-difluorobenzyl)-2-(2-(6-methoxyquinolin-4-yl)ethyl)-trans-1,3-dioxan-5-amine], the MIC was 64 µg/mL (≈ 154 µM).
The same measure, in the same setting: the figure for `COc1ccc2nccc(CC[C@H]3OC[C@H](NCc4ccc(F)c(F)c4)CO3)c2c1` [AB-0024, N-(3,4-difluorobenzyl)-2-(2-(6-methoxyquinolin-4-yl)ethyl)-trans-1,3-dioxan-5-amine] is 64 µg/mL (≈ 154 µM).
For `COc1ccc2nccc(CC[C@H]3OC[C@H](NCc4cccc(F)c4)CO3)c2c1` [AB-0050, N-(3-fluorobenzyl)-2-(2-(6-methoxyquinolin-4-yl)ethyl)-trans-1,3-dioxan-5-amine], the MIC was 32 µg/mL (≈ 80.7 µM).
Regarding `COc1ccc2ncc(=O)n(CC[C@H]3OC[C@H](NCc4ccc(Cl)c(Cl)c4)CO3)c2c1` [AB-0007, 1-(2-(5-((3,4-dichlorobenzyl)amino)-trans-1,3-dioxan-2-yl)ethyl)-7-methoxyquinoxalin-2(1H)-one], inhibition of growth (MIC) required 4 µg/mL (≈ 8.61 µM).
For the molecule `COc1ccc2nccc(CC[C@H]3OC[C@H](NCc4cccnc4)CO3)c2c1` [AB-0049, 2-(2-(6-methoxyquinolin-4-yl)ethyl)-N-(pyridin-3-ylmethyl)-trans-1,3-dioxan-5-amine], the MIC is greater than 64 µg/mL.
In turn, `COc1ccc2nccc(CC[C@H]3OC[C@H](NCc4ccccc4Cl)CO3)c2c1` [AB-0043, N-(2-chlorobenzyl)-2-(2-(6-methoxyquinolin-4-yl)ethyl)-trans-1,3-dioxan-5-amine] came in with an MIC greater than 64 µg/mL.
Molecule `COc1ccc2nccc(CC[C@H]3OC[C@H](NC(=O)c4ccccc4)CO3)c2c1` [AB-0075, N-(2-(2-(6-methoxyquinolin-4-yl)ethyl)-trans-1,3-dioxan-5-yl)benzamide] showed an MIC of 16 µg/mL (≈ 40.8 µM).
Turning to `COc1ccc2nccc(CC[C@H]3OC[C@H](NCc4cccc(OC)n4)CO3)c2c1` [AB-0040, N-((6-methoxypyridin-2-yl)methyl)-2-(2-(6-methoxyquinolin-4-yl)ethyl)-trans-1,3-dioxan-5-amine], the MIC is greater than 64 µg/mL.
Still for that read-out and setting: the figure for `COc1ccc2nccc(CC[C@H]3OC[C@H](NCc4ccc(C)cn4)CO3)c2c1` [AB-0070, 2-(2-(6-methoxyquinolin-4-yl)ethyl)-N-((5-methylpyridin-2-yl)methyl)-trans-1,3-dioxan-5-amine] is 4 µg/mL (≈ 10.2 µM); for `COc1cccc(CN[C@H]2CO[C@H](CCc3ccnc4ccc(OC)cc34)OC2)c1` [AB-0034, N-(3-methoxybenzyl)-2-(2-(6-methoxyquinolin-4-yl)ethyl)-trans-1,3-dioxan-5-amine] it is 16 µg/mL (≈ 39.2 µM); for `COc1ccc2nccc(CC[C@H]3OC[C@H](NC(=O)c4ccc5c(c4)OCCO5)CO3)c2c1` [AB-0088, N-(2-(2-(6-methoxyquinolin-4-yl)ethyl)-trans-1,3-dioxan-5-yl)-2,3-dihydrobenzo[b][1,4]dioxine-6-carboxamide] it is 8 µg/mL (≈ 17.8 µM).
`COc1ccc2nccc(CC[C@H]3OC[C@H](NCc4ccccc4OC)CO3)c2c1` [AB-0027, N-(2-methoxybenzyl)-2-(2-(6-methoxyquinolin-4-yl)ethyl)-trans-1,3-dioxan-5-amine]: the MIC is greater than 64 µg/mL.
Molecule `COc1ccc2nccc(CC[C@H]3OC[C@H](NCc4ccccc4)CO3)c2c1` [AB-0038, N-benzyl-2-(2-(6-methoxyquinolin-4-yl)ethyl)-trans-1,3-dioxan-5-amine] registered an MIC greater than 64 µg/mL.
On to `COc1ccc2nccc(CC[C@H]3OC[C@H](NCc4ccc(Cl)cn4)CO3)c2c1` [AB-0069, N-((5-chloropyridin-2-yl)methyl)-2-(2-(6-methoxyquinolin-4-yl)ethyl)-trans-1,3-dioxan-5-amine], for which the MIC is 8 µg/mL (≈ 19.3 µM).
`COc1ccc2ncc(=O)n(CC[C@H]3OC[C@H](NCc4cc5c(cn4)OCCC5)CO3)c2c1` [AB-0006, 1-(2-(5-(((3,4-dihydro-2H-pyrano[2,3-c]pyridin-6-yl)methyl)amino)-trans-1,3-dioxan-2-yl)ethyl)-7-methoxyquinoxalin-2(1H)-one] had an MIC of 8 µg/mL (≈ 17.7 µM).
`COc1ccc2nccc(CC[C@H]3OC[C@H](NCc4ccccc4F)CO3)c2c1` [AB-0033, N-(2-fluorobenzyl)-2-(2-(6-methoxyquinolin-4-yl)ethyl)-trans-1,3-dioxan-5-amine] had an MIC greater than 64 µg/mL.
On the same count and under the same terms, the figure for `COc1ccc2nccc(CC[C@H]3OC[C@H](NCc4cccc(C)c4)CO3)c2c1` [AB-0042, 2-(2-(6-methoxyquinolin-4-yl)ethyl)-N-(3-methylbenzyl)-trans-1,3-dioxan-5-amine] is 16 µg/mL (≈ 40.8 µM).
`COc1ccc2nccc(CC[C@H]3OC[C@H](NCc4cccs4)CO3)c2c1` [AB-0036, 2-(2-(6-methoxyquinolin-4-yl)ethyl)-N-(thiophen-2-ylmethyl)-trans-1,3-dioxan-5-amine] registered a minimum inhibitory concentration (MIC) greater than 64 µg/mL.
Same read-out and setting: the value for `COc1ccc2nccc(CC[C@H]3OC[C@H](NCc4ccsc4)CO3)c2c1` [AB-0035, 2-(2-(6-methoxyquinolin-4-yl)ethyl)-N-(thiophen-3-ylmethyl)-trans-1,3-dioxan-5-amine] was greater than 64 µg/mL; that for `COc1ccc2nccc(CC[C@H]3OC[C@H](NCc4cccc(Cl)c4)CO3)c2c1` [AB-0037, N-(3-chlorobenzyl)-2-(2-(6-methoxyquinolin-4-yl)ethyl)-trans-1,3-dioxan-5-amine] was 32 µg/mL (≈ 77.5 µM).
On to `COc1ccc2nccc(CC[C@H]3OC[C@H](NCc4ccccn4)CO3)c2c1` [AB-0048], for which the MIC came out at 8 µg/mL (≈ 21.1 µM).
`COc1ccc2nccc(CC[C@H]3OC[C@H](NC(=O)c4ccc(Cl)c(Cl)c4)CO3)c2c1` [AB-0089, 3,4-dichloro-N-(2-(2-(6-methoxyquinolin-4-yl)ethyl)-trans-1,3-dioxan-5-yl)benzamide] had an MIC of no more than 0.5 µg/mL.
In the case of `COc1ccc2nccc(CC[C@H]3OC[C@H](NCc4ccc(F)cc4F)CO3)c2c1` [AB-0039, N-(2,4-difluorobenzyl)-2-(2-(6-methoxyquinolin-4-yl)ethyl)-trans-1,3-dioxan-5-amine], inhibition of growth (MIC) required 64 µg/mL (≈ 154 µM).
Take `COc1ccc2nccc(CC[C@H]3OC[C@H](NCc4ccc(F)cc4)CO3)c2c1` [AB-0041, N-(4-fluorobenzyl)-2-(2-(6-methoxyquinolin-4-yl)ethyl)-trans-1,3-dioxan-5-amine]: the MIC was greater than 64 µg/mL.
Take `COc1ccc2nccc(CC[C@H]3OC[C@H](NCCc4ccccc4)CO3)c2c1` [AB-0045, 2-(2-(6-methoxyquinolin-4-yl)ethyl)-N-phenethyl-trans-1,3-dioxan-5-amine]: the MIC was 64 µg/mL (≈ 163 µM).
Regarding `COc1ccc2nccc(CC[C@H]3OC[C@H](NCc4ccc(OC(F)F)cc4)CO3)c2c1` [AB-0084, N-(4-(difluoromethoxy)benzyl)-2-(2-(6-methoxyquinolin-4-yl)ethyl)-trans-1,3-dioxan-5-amine], the MIC turned out to be 4 µg/mL (≈ 9 µM).
Consider `COc1ccc2nccc(CC[C@H]3OC[C@H](NCc4cc(F)cc(F)c4)CO3)c2c1` [AB-0029, N-(3,5-difluorobenzyl)-2-(2-(6-methoxyquinolin-4-yl)ethyl)-trans-1,3-dioxan-5-amine], for which the minimum inhibitory concentration (MIC) was determined as 16 µg/mL (≈ 38.6 µM).

Source of the values: US11352349B2, “Type II topoisomerase inhibitors and methods of making and using thereof” (Ohio State Innovation Foundation, priority 2017, dated 2022).
